Counter-ions that a name gives are not always drawn.
Biological target: human tryptase
Assay: Inhibition of human tryptase (apparent dissociation constant, chromogenic substrate tos-Gly-Pro-arg-pNA)
Format: biochemical
Settings: apparent dissociation constant in presence of substrate; heparin 0.1–50 μg/ml; equilibrium conditions; read-out: Kiapp
Source text: The documented pathophysiological effects of mast cell tryptase are caused directly by the enzymatic activity of the protease. Accordingly, they are reduced or blocked by inhibitors which inhibit the enzymatic activity of the tryptase. A suitable measure for the affinity of a reversible inhibitor to the target protease is the equilibrium dissociation constant Ki of the enzyme-inhibitor complex. This Ki value can be determined via the effect of the inhibitor on the tryptase-induced cleavage of a chromogenic peptide-p-nitroanilide substrate or a fluorogenic peptide-aminomethylcoumarin substrate.
The dissociation constants for the tryptase-inhibitor complexes are determined under equilibrium conditions in accordance with the general proposals of Bieth (Bieth J G, Pathophysiological Interpretation of kinetic constants of protease inhibitors, Bull. Europ. Physiopath. Resp. 16:183–195, 1980) and the methods of Sommerhoff et al. (Sommerhoff C P et al., A Kazal-type inhibitor of human mast cell tryptase: Isolation from the medical leech Hirudo medicinalis, characterization, and sequence analysis, Biol. Chem. Hoppe-Seyler 375: 685–694, 1994).
Human tryptase is isolated from lung tissue or prepared recombinantly; the specific activity of the protease, determined by titration, is usually greater than 85% of the theoretical value. In the presence of heparin (0.1–50 μg/ml) for stabilizing the protease, constant amounts of the tryptase are incubated with increasing amounts of the inhibitors. After an equilibrium between the reaction partners has formed, the remaining enzyme activity after addition of the peptide-p-nitroanilide substrate tos-Gly-Pro-argpNA is determined and the cleavage of the latter is monitored at 405 nm for 3 min. Alternatively, the remaining enzymatic activity can also be determined using fluorogenic substrates. The apparent dissociation constants Kiapp (i.e. in the presence of substrate) are subsequently determined by adapting the enzyme rates to the general equation for reversible inhibitors (Morrison J F, Kinetics of the reversible inhibition of enzyme-catalyzed reactions by tight-binding inhibitors, Biochim. Biophys. Acta 185, 269–286, 1969) using non-linear regression: V1/V0=1−{Et+It+Kiapp−[(Et+It+Kiapp)^2−4EtIt]^1/2}/2Et V1 and V0 are the rates in the presence and absence, respectively, of the inhibitor, and Et and It are the tryptase and inhibitor concentrations, respectively.
The apparent dissociation constants determined for the compounds according to the invention are shown in Table A below, where the numbers of the compounds correspond to the numbers of the compounds in the examples.

Row | SMILES | Ki
1 | NCc1ccc(CC(=O)C#CC(N)c2ccc(C(N)C#CC(=O)Cc3ccc(CN)cc3)cc2)cc1 (centres unmarked) [Compound 13, 1,4-Bis-(4-aminomethylbenzylcarbonyl-1-aminoprop-2-ynyl)-benzene Dihydrochloride] | 130 nM
2 | NCc1ccc(CNC(=O)COCC#Cc2cccc(C#CCOCC(=O)NCc3ccc(CN)cc3)c2)cc1 [Compound 12, 1,3-Bis-(4-aminomethylbenzylaminocarbonylmethyl-1-oxyprop-2-ynyl)-benzene Dihydrochloride] | 13 nM
3 | NCc1ccc(CC(=O)C#CC(N)c2ccccc2C(N)C#CC(=O)Cc2ccc(CN)cc2)cc1 (centres unmarked) [Compound 14, 1,2-Bis-(4-aminomethylbenzylcarbonyl-1-aminoprop-2-ynyl)-benzene Dihydrochloride] | 330 nM
4 | NCC1CCC(C(=O)N2CCN(C(=O)OCC#Cc3ccc(C#CCOC(=O)N4CCN(C(=O)C5CCC(CN)CC5)CC4)cc3)CC2)CC1 (stereo not drawn) [Compound 1, 1,4-Bis[4-(trans-4-aminomethylcyclohexylcarbonyl)-1-piperazinylcarbonyl-1-oxyprop-2-ynyl]benzene Dihydrochloride] | 3 nM
5 | NCc1ccc(CNC(=O)COCC#Cc2ccc(C#CCOCC(=O)NCc3ccc(CN)cc3)cc2)cc1 [Compound 11, 1,4-Bis-(4-aminomethylbenzylaminocarbonylmethyl-1-oxyprop-2-ynyl)-benzene Dihydrochloride] | 30 nM
6 | NCc1cccc(CNC(=O)OCC#Cc2cscc2C#CCOC(=O)NCc2cccc(CN)c2)c1 [Compound 10, 3,4-Bis-(3-aminomethylbenzylaminocarbonyl-1-oxyprop-2-ynyl)-thiophene Dihydrochloride] | 150 nM
7 | NC[C@H]1CC[C@H](C(=O)N2CCN(C(=O)OCC#Cc3ccccc3C#CCOC(=O)N3CCN(C(=O)[C@H]4CC[C@H](CN)CC4)CC3)CC2)CC1 [Compound 3, 1,2-Bis[4-(trans-4-aminomethylcyclohexylcarbonyl)-1-piperazinylcarbonyl-1-oxyprop-2-ynyl]benzene Dihydrochloride] | 200 nM
8 | NCc1cccc(CNC(=O)OCC#Cc2ccc(C#CCOC(=O)NCc3cccc(CN)c3)o2)c1 [Compound 9, 2,5-Bis-(3-aminomethylbenzylaminocarbonyl-1-oxyprop-2-ynyl)-furan Dihydrochloride] | 7.5 nM

Now from value to compound:

Row | Ki | SMILES
9 | 3 nM | NCc1ccc(CNC(=O)N2CCN(C(=O)OCC#Cc3ccccc3C#CCOC(=O)N3CCN(C(=O)NCc4ccc(CN)cc4)CC3)CC2)cc1 [Compound 4, 1,2-Bis[4-(4-aminomethylbenzylaminocarbonyl)-1-piperazinylcarbonyl-1-oxyprop-2-ynyl]-benzene Dihydrochloride]
10 | 10 nM | NCc1ccc(CNC(=O)N2CCN(C(=O)OCC#Cc3cccc(C#CCOC(=O)N4CCN(C(=O)NCc5ccc(CN)cc5)CC4)c3)CC2)cc1 [Compound 2, 1,3-Bis[4-(4-aminomethylbenzylaminocarbonyl)-1-piperazinylcarbonyl-1-oxyprop-2-ynyl]-benzene Dihydrochloride]
11 | 300 nM | NCc1ccc(CNC(=O)OCC#Cc2ccccc2C#CCOC(=O)NCc2ccc(CN)cc2)cc1 [Compound 6, 1,2-Bis-(4-aminomethylbenzylaminocarbonyl-1-oxyprop-2-ynyl)-benzene Dihydrochloride]
12 | 120 nM | NCc1ccc(CNC(=O)OCC#Cc2cscc2C#CCOC(=O)NCc2ccc(CN)cc2)cc1 [Compound 7, 3,4-Bis-(4-aminomethylbenzylaminocarbonyl-1-oxyprop-2-ynyl)-thiophene Dihydrochloride]
13 | 80 nM | NCc1ccc(CNC(=O)OCC#Cc2ccc(C#CCOC(=O)NCc3ccc(CN)cc3)o2)cc1 [Compound 8, 2,5-Bis-(4-aminomethylbenzylaminocarbonyl-1-oxyprop-2-ynyl)-furan Dihydrochloride]
14 | 32 nM | NCc1ccc(CNC(=O)OCC#Cc2cccc(C#CCOC(=O)NCc3ccc(CN)cc3)c2)cc1 [Compound 5, 1,3-Bis-(4-aminomethylbenzylaminocarbonyl-1-oxyprop-2-ynyl)-benzene Dihydrochloride]

From US6960588B1, “Tryptase inhibitors” (Altana Pharma AG, priority 1999, dated 2005)
